# In article PMC6696147, “Broad-Spectrum Antiviral Natural Products from the Marine-Derived Penicillium sp. IMB17-046” (Molecules, 2019):
# Read-outs that look alike come from different tables or passages of the source.
# Legend:
# [1] = test system: HIV-1; assay: microbe, parasite or virus in culture; format: cell-based; settings: Human immunodeficiency virus 1, SUP-T1, 48 h, read-out: HIV-1 IC50
# [2] = test system: Helicobacter pylori; assay: Antibacterial assay, broth micro-dilution MIC, H. pylori; format: cell-based; settings: for MIC: Helicobacter pylori; for H. pylori MIC, range over strains: clinically isolated H. pylori, strains G27 and 159 together
# Method: (§1) The antibacterial activities against H. pylori, S. aureus, B. subtilis, P. aeruginosa, and K. pneumonia were assayed by examining the MIC using the broth micro-dilution method as previously described.
# [3] = test system: Staphylococcus aureus; assay: Antibacterial assay, broth micro-dilution MIC, S. aureus; format: cell-based; settings: read-out: MIC against Staphylococcus aureus
# Method: as §1
# [4] = test system: Bacillus subtilis; assay: Antibacterial assay, broth micro-dilution MIC, B. subtilis; format: cell-based; settings: read-out: MIC against Bacillus subtilis
# Method: as §1
# [5] = test system: Pseudomonas aeruginosa; assay: Antibacterial assay, broth micro-dilution MIC, P. aeruginosa; format: cell-based; settings: read-out: MIC against Pseudomonas aeruginosa
# Method: as §1
# [6] = test system: Klebsiella pneumoniae; assay: Antibacterial assay, broth micro-dilution MIC, K. pneumoniae; format: cell-based; settings: read-out: MIC against Klebsiella pneumoniae
# Method: as §1
# [7] = in vitro; settings: human
# [8] = test system: HCV; assay: Anti-HCV assay; format: cell-based; settings: Hepatitis C virus
# Method: Anti-HCV assays were carried out as described previously.
# [9] = Cytotoxicity assay (MTT), uninfected Huh7.5 cells; format: cell-based; settings: human, read-out: HCV CC50
# Method: Cytotoxicity of compounds were assayed for the uninfected 293T-Gluc, SupT1, and Huh7.5 cells. 293T-Gluc and Huh7.5 cells were cultured in Dulbecco’s modified Eagle’s medium supplemented with 10% fetal bovine serum (FBS, Invitrogen). SupT1 cells were cultured in RPMI1640 medium supplemented with 10% FBS. Various concentrations of test compounds (1 μL each well) were added to the 293T-Gluc and SupT1 cells (1 × 10^5 cells/well) in 96-well plates. After incubation at 37 °C for 48 h, 10 μL of CCK-8 reagent was added to the cells and they were incubated for another 4 h. Then, the absorbance of each well was recorded at 450 nm. A cytotoxicity assay for Huh7.5 cells was carried out using the MTT method as described previously.
# [10] = in vitro; settings: human; remark: listed apart in the source
# [11] = test system: wild-type and multi-drug resistant HIV-1; parameters: method as in doi:10.1007/s11426-018-9283-3; settings: cited from earlier work
# [12] = drug-resistant strain 159, read-out: H. pylori MIC, 159
# [13] = drug-sensitive strain G27, read-out: H. pylori MIC, G27
compound,measurement,setting,value
"COc1cc(=O)oc(C=CC=CC=CC(C)=CC2(C)OC(C)C(C)(O)C2O)c1C (single isomer, unassigned; (+)) [Compound 2, (+)-neocitreoviridin]",IC50,[1],> 10 µM
same,MIC,[2]; [12],1 µg/mL
same,MIC,[2]; [13],4 µg/mL
same,"H. pylori MIC, range over strains",[2],1 to 16 µg/mL
same,MIC,[3],> 128 µg/mL
same,MIC,[4],> 128 µg/mL
same,MIC,[5],> 128 µg/mL
same,MIC,[6],> 128 µg/mL
same,CC50,[7],> 100 µM
"CC[C@H](C)c1nc(OC)c(Cc2c[nH]c3ccccc23)nc1O [Compound 1, (S)-6-((1H-indol-3-yl)methyl)-3-(sec-butyl)-5-methoxypyrazin-2-ol]",IC50,[1],4.6 ± 0.3 µM
same,IC50,[8],7.7 ± 0.2 µM
same,CC50,[9],116 ± 4.9 µM
same,MIC,[2]; [12],16 µg/mL
same,MIC,[2]; [13],4 µg/mL
same,"H. pylori MIC, range over strains",[2],1 to 16 µg/mL
same,MIC,[3],> 128 µg/mL
same,MIC,[4],> 128 µg/mL
same,MIC,[5],> 128 µg/mL
same,MIC,[6],> 128 µg/mL
"C=C(CC[C@@H](C)[C@H]1CC=C2C3=C(CC[C@@]21C)[C@@]1(C)CC[C@H](O)CC1CC3=O)C(C)C (stereo partly drawn) [Compound 3, 3β-hydroxyergosta-8,14,24(28)-trien-7-one]",IC50,[1],3.5 ± 0.8 µM
"C=C(CC[C@@H](C)[C@H]1CC[C@H]2C3=C(CC[C@]12C)[C@@]1(C)CC[C@H](O)CC1CC3=O)C(C)C (stereo partly drawn) [Compound 7, 3β-hydroxyergosta-8,24(28)-dien-7-one]",IC50,[1],> 10 µM
same,CC50,[7],> 100 µM
"CC(C)[C@@H](C)/C=C/[C@@H](C)[C@H]1CC[C@H]2C3=C[C@@H](O)[C@@]4(O)C[C@@H](O)CC[C@]4(C)[C@H]3CC[C@]12C [Compound 8, (22E,24R)-24-methyl-5α-cholesta-7,22-dien-3β,5,6β-triol]",IC50,[1],6.2 ± 0.2 µM
"O=C1Nc2ccc(Cl)cc2[C@@](C#CC2CC2)(C(F)(F)F)O1 [Efavirenz, reference compound]",CC50,[7],> 100 µM
"Cc1ncc([N+](=O)[O-])n1CCO [Metronidazole, reference compound]",MIC,[2]; [12],16 µg/mL
same,MIC,[2]; [13],1 µg/mL
"NC(=O)c1ncn([C@@H]2O[C@H](CO)[C@@H](O)[C@H]2O)n1 [Ribavirin, reference compound]",CC50,[10],> 100 µM
"CCC[C@H](NC(=O)[C@@H]1[C@H]2CCC[C@H]2CN1C(=O)[C@@H](NC(=O)[C@@H](NC(=O)c1cnccn1)C1CCCCC1)C(C)(C)C)C(=O)C(=O)NC1CC1 [VX-950, reference compound]",IC50,[8],0.05 ± 0.03 µM
same,CC50,[9],25.8 ± 3.4 µM
"CC(C)[C@H](C)CC[C@](C)(O)[C@H]1C(=O)C[C@H]2[C@@H]3C(=O)C=C4C[C@@H](O)CC[C@]4(C)[C@H]3CC[C@@]21C [amotsterol D, (20S,24R)-3β,20-dihydroxyergostan-5(6)-en-7,16-dione]",effectiveness against HIV-1,[11],low micromolar range
